This passage reports 3 h FOB score results from the OligoGym collection.

HELM strings list units from the 5' end as sugar, base in round brackets, then linkage (d deoxyribose, r ribose, m 2'-O-methyl, p phosphodiester). Strings are as the collection lists them; they lack the last nucleoside at the 3' end of the tested compound. [moe] = 2'-O-(2-methoxyethyl) (MOE); [sp] = phosphorothioate linkage; [m5C] = 5-methylcytosine

The target in this data set is UBE3A-ATS. Briefly: mouse, dose not given. As to conditions: ASO.

With “RNA1{[moe]([m5C])[sp].[moe](G)p.[moe](T)p.[moe](G)p.[moe](A)p.d(G)[sp].d([m5C])[sp].d(T)[sp].d(A)[sp].d(T)[sp].d([m5C])[sp].d(T)[sp].d(G)[sp].d(T)[sp].d(A)[sp].[moe]([m5C])p.[moe](A)p.[moe](A)[sp].[moe](A)}$$$$ (last 3' nucleoside missing)”, the 3 h FOB score came out at 3.2 score 0-7. For “RNA1{[moe](T)[sp].[moe](A)p.[moe](T)p.[moe](A)p.[moe](G)p.d(G)[sp].d(G)[sp].d(T)[sp].d(G)[sp].d(G)[sp].d(T)[sp].d(T)[sp].d(G)[sp].d(G)[sp].d(T)[sp].[moe](T)p.[moe]([m5C])p.[moe](A)[sp].[moe](A)}$$$$ (last 3' nucleoside missing)” the value was 6 score 0-7; for “RNA1{[moe](G)[sp].[moe](T)p.[moe](A)p.[moe]([m5C])p.[moe](T)p.d([m5C])[sp].d(A)[sp].d(T)[sp].d([m5C])[sp].d(A)[sp].d(T)[sp].d(G)[sp].d(A)[sp].d(T)[sp].d([m5C])[sp].[moe](T)p.[moe](T)p.[moe](G)[sp].[moe](G)}$$$$ (last 3' nucleoside missing)”, 2 score 0-7; for “RNA1{[moe]([m5C])[sp].[moe]([m5C])p.[moe]([m5C])p.[moe](A)p.[moe](T)p.d(T)[sp].d([m5C])[sp].d(A)[sp].d(G)[sp].d([m5C])[sp].d(A)[sp].d([m5C])[sp].d(T)[sp].d(T)[sp].d(A)[sp].[moe](G)p.[moe](G)p.[moe](T)[sp].[moe](A)}$$$$ (last 3' nucleoside missing)”, 4.8 score 0-7. “RNA1{[moe](T)[sp].[moe](G)p.[moe](G)p.[moe](T)p.[moe]([m5C])p.[moe](A)p.d(T)[sp].d([m5C])[sp].d(T)[sp].d([m5C])[sp].d(G)[sp].d(G)[sp].d(G)[sp].d(T)[sp].d(A)[sp].d(T)[sp].[moe](A)p.[moe](T)[sp].[moe](A)}$$$$ (last 3' nucleoside missing)”: the 3 h FOB score worked out at 6 score 0-7. The figure for “RNA1{[moe](G)[sp].[moe](T)p.[moe](A)p.[moe](T)p.[moe](A)p.d(T)[sp].d(A)[sp].d([m5C])[sp].d(T)[sp].d([m5C])[sp].d([m5C])[sp].d(A)[sp].d(G)[sp].d(G)[sp].d(T)[sp].[moe](T)p.[moe](G)p.[moe](T)[sp].[moe](G)}$$$$ (last 3' nucleoside missing)” is 5.2 score 0-7. Turning to “RNA1{[moe](A)[sp].[moe]([m5C])p.[moe](A)p.[moe]([m5C])p.[moe](T)p.d(T)[sp].d(T)[sp].d([m5C])[sp].d(A)[sp].d(T)[sp].d([m5C])[sp].d(A)[sp].d(G)[sp].d(T)[sp].d(T)[sp].[moe](A)p.[moe](G)p.[moe](T)[sp].[moe]([m5C])}$$$$ (last 3' nucleoside missing)”, the 3 h FOB score is 1 score 0-7. The figure for “RNA1{[moe](G)[sp].[moe](A)p.[moe](T)p.[moe]([m5C])p.[moe](A)p.[moe]([m5C])p.d(A)[sp].d(T)[sp].d(T)[sp].d(A)[sp].d([m5C])[sp].d([m5C])[sp].d([m5C])[sp].d(A)[sp].d(T)[sp].d([m5C])[sp].[moe]([m5C])p.[moe](G)[sp].[moe](T)}$$$$ (last 3' nucleoside missing)” is 0 score 0-7; for “RNA1{[moe](G)[sp].[moe]([m5C])p.[moe](T)p.[moe]([m5C])[sp].d(A)[sp].d(G)[sp].d(T)[sp].d(T)[sp].d(A)[sp].d(G)[sp].d(G)[sp].d(T)[sp].[moe](T)p.[moe](A)p.[moe](G)p.[moe](T)[sp].[moe](G)}$$$$ (last 3' nucleoside missing)” it is 4 score 0-7. For “RNA1{[moe](T)[sp].[moe](G)p.[moe](G)p.[moe](T)p.[moe]([m5C])[sp].d(A)[sp].d(T)[sp].d([m5C])[sp].d(T)[sp].d([m5C])[sp].d(G)[sp].d(G)[sp].d(G)[sp].[moe](T)p.[moe](A)p.[moe](T)[sp].[moe](A)}$$$$ (last 3' nucleoside missing)” the value was 6.3 score 0-7.

Substance “RNA1{[moe](T)[sp].[moe]([m5C])p.[moe](A)p.[moe](G)p.[moe](A)p.d(T)[sp].d(T)[sp].d([m5C])[sp].d([m5C])[sp].d(T)[sp].d(A)[sp].d(A)[sp].d(A)[sp].d(T)[sp].d(A)[sp].[moe]([m5C])p.[moe](G)p.[moe]([m5C])[sp].[moe](A)}$$$$ (last 3' nucleoside missing)” gave a 3 h FOB score of 0 score 0-7. Regarding “RNA1{[moe](T)[sp].[moe](G)p.[moe](G)p.[moe](T)p.[moe](A)p.d(T)[sp].d(T)[sp].d(G)[sp].d(A)[sp].d([m5C])[sp].d(A)[sp].d([m5C])[sp].d([m5C])[sp].d(T)[sp].d([m5C])[sp].[moe]([m5C])p.[moe](A)p.[moe](A)[sp].[moe]([m5C])}$$$$ (last 3' nucleoside missing)”, the 3 h FOB score was 0.3 score 0-7. The figure for “RNA1{[moe](G)[sp].[moe](T)p.[moe]([m5C])p.[moe](A)p.d(T)[sp].d([m5C])[sp].d(T)[sp].d([m5C])[sp].d(G)[sp].d(G)[sp].d(G)[sp].d(T)[sp].d(A)[sp].d(T)[sp].[moe](A)p.[moe](T)p.[moe](A)p.[moe](A)[sp].[moe](A)}$$$$ (last 3' nucleoside missing)” is 4 score 0-7. The substance “RNA1{[moe](T)[sp].[moe]([m5C])p.[moe]([m5C])p.[moe]([m5C])p.[moe](A)p.d(T)[sp].d([m5C])[sp].d(A)[sp].d(T)[sp].d([m5C])[sp].d(A)[sp].d(G)[sp].d(T)[sp].d(G)[sp].d(T)[sp].[moe](G)p.[moe](T)p.[moe](G)[sp].[moe]([m5C])}$$$$ (last 3' nucleoside missing)” registered a 3 h FOB score of 3.25 score 0-7.

“RNA1{[moe](G)[sp].[moe]([m5C])p.[moe](T)p.[moe](G)p.[moe](A)p.[moe](T)[sp].d([m5C])[sp].d(A)[sp].d([m5C])[sp].d(A)[sp].d(T)[sp].d(T)[sp].d(A)[sp].d([m5C])[sp].[moe]([m5C])p.[moe]([m5C])[sp].[moe](A)}$$$$ (last 3' nucleoside missing)” registered a 3 h FOB score of 0 score 0-7.

On to “RNA1{[moe]([m5C])[sp].[moe](T)p.[moe](G)p.[moe](T)p.[moe](A)p.d(A)[sp].d(G)[sp].d(G)[sp].d(T)[sp].d(G)[sp].d(A)[sp].d(T)[sp].d(A)[sp].d(T)[sp].d([m5C])[sp].[moe](T)p.[moe](A)p.[moe](T)[sp].[moe](A)}$$$$ (last 3' nucleoside missing)”, for which the 3 h FOB score came out at 3 score 0-7. “RNA1{[moe](A)[sp].[moe](G)p.[moe](G)p.[moe]([m5C])p.[moe](A)p.d(A)[sp].d(T)[sp].d(G)[sp].d(G)[sp].d(A)[sp].d([m5C])[sp].d(T)[sp].d(T)[sp].d(A)[sp].d(G)[sp].[moe](T)p.[moe](A)p.[moe]([m5C])[sp].[moe](A)}$$$$ (last 3' nucleoside missing)” gave a 3 h FOB score of 4 score 0-7. For “RNA1{[moe](T)[sp].[moe](G)p.[moe]([m5C])p.[moe]([m5C])p.[moe](T)p.d(T)[sp].d(T)[sp].d([m5C])[sp].d(T)[sp].d(A)[sp].d(T)[sp].d(T)[sp].d(T)[sp].d([m5C])[sp].d(A)[sp].[moe](G)p.[moe](A)p.[moe]([m5C])[sp].[moe]([m5C])}$$$$ (last 3' nucleoside missing)” the value was 2.7 score 0-7. For “RNA1{[moe](T)[sp].[moe](T)p.[moe](G)p.[moe](G)p.[moe](T)p.d([m5C])[sp].d(A)[sp].d(T)[sp].d([m5C])[sp].d(T)[sp].d([m5C])[sp].d(G)[sp].d(G)[sp].d(G)[sp].d(T)[sp].[moe](A)p.[moe](T)p.[moe](A)[sp].[moe](T)}$$$$ (last 3' nucleoside missing)” the value was 5.7 score 0-7. Consider “RNA1{[moe](G)[sp].[moe](T)p.[moe](G)p.[moe](T)p.[moe](G)p.d([m5C])[sp].d([m5C])[sp].d(A)[sp].d(T)[sp].d(A)[sp].d(G)[sp].d(G)[sp].d(T)[sp].d(T)[sp].d(T)[sp].[moe]([m5C])p.[moe](A)p.[moe](G)[sp].[moe](G)}$$$$ (last 3' nucleoside missing)”, for which the 3 h FOB score was 2.8 score 0-7. The figure for “RNA1{[moe](T)[sp].[moe](T)p.[moe](G)p.[moe]([m5C])p.d(T)[sp].d(G)[sp].d(A)[sp].d(T)[sp].d([m5C])[sp].d(A)[sp].d([m5C])[sp].d(A)[sp].d(T)[sp].d(T)[sp].[moe](A)p.[moe]([m5C])p.[moe]([m5C])p.[moe]([m5C])[sp].[moe](A)}$$$$ (last 3' nucleoside missing)” is 0 score 0-7; for “RNA1{[moe](G)[sp].[moe](G)p.[moe](G)p.[moe](A)p.[moe](A)p.d([m5C])[sp].d(A)[sp].d([m5C])[sp].d(A)[sp].d([m5C])[sp].d([m5C])[sp].d(A)[sp].d(T)[sp].d(T)[sp].d([m5C])[sp].[moe](A)p.[moe](G)p.[moe]([m5C])[sp].[moe](A)}$$$$ (last 3' nucleoside missing)” it is 4.5 score 0-7; for “RNA1{[moe](T)[sp].[moe](G)p.[moe](A)p.[moe](T)p.[moe]([m5C])p.[moe](A)[sp].d([m5C])[sp].d(A)[sp].d(T)[sp].d(T)[sp].d(A)[sp].d([m5C])[sp].d([m5C])[sp].d([m5C])[sp].[moe](A)p.[moe](T)[sp].[moe]([m5C])}$$$$ (last 3' nucleoside missing)” it is 0 score 0-7. The figure for “RNA1{[moe](T)[sp].[moe](T)p.[moe]([m5C])p.[moe](A)p.[moe]([m5C])p.d([m5C])[sp].d(A)[sp].d(T)[sp].d(T)[sp].d(T)[sp].d(T)[sp].d(G)[sp].d(A)[sp].d([m5C])[sp].d([m5C])[sp].[moe](T)p.[moe](T)p.[moe]([m5C])[sp].[moe](T)}$$$$ (last 3' nucleoside missing)” is 1 score 0-7; for “RNA1{[moe](G)[sp].[moe](G)p.[moe](G)p.[moe]([m5C])p.[moe](A)p.d(A)[sp].d(A)[sp].d(A)[sp].d(A)[sp].d(T)[sp].d(A)[sp].d(G)[sp].d([m5C])[sp].d(A)[sp].d(A)[sp].[moe]([m5C])p.[moe](A)p.[moe](T)[sp].[moe](A)}$$$$ (last 3' nucleoside missing)” it is 5.8 score 0-7.
